Reference: article PMC8877291, “Design and Synthesis of Arylpiperazine Serotonergic/Dopaminergic Ligands with Neuroprotective Properties” (Molecules, 2022)

Legend:
[1] = molecular target: dopamine D2s receptor (Homo sapiens, UniProt P14416); assay: Dopamine D2s receptor competition binding ([3H]spiperone)
Protocol: Competition binding experiments at dopamine D2s and D3 receptor were performed to determine the affinity of the compounds. […] Membrane preparations of transfected CHO-K1 cells stably expressing the human D2s or D3 receptor were performed according to Bautista-Aguilera et al. [26]. The competition binding experiments were conducted as previously reported [26, 27]. Briefly, membrane fractions (D2sR: 25 µg/200 µL; D3R: 20 µg/200 µL) were incubated with [^3H]spiperone (0.2 nM) and test compound for 120 min at room temperature. […] Non-specific binding was determined in the presence of 10 µM haloperidol. Haloperidol was also used as reference compound. Separation of the bound ligand from the free ligand was conducted by filtration through GF/B filters using deionized water.

[2] = molecular target: T1, dopamine D1 receptor (Homo sapiens, UniProt P21728); assay: Dopamine D1 receptor competition binding ([3H]-SCH23390); conditions: HEK-293 membranes, [3H]-SCH23390 0.3 nM, mean (CI 95%), read-out: Affinity Ki D1
T1 construct: expressed in transfected cells
T1 sequence (P21728 whole entry): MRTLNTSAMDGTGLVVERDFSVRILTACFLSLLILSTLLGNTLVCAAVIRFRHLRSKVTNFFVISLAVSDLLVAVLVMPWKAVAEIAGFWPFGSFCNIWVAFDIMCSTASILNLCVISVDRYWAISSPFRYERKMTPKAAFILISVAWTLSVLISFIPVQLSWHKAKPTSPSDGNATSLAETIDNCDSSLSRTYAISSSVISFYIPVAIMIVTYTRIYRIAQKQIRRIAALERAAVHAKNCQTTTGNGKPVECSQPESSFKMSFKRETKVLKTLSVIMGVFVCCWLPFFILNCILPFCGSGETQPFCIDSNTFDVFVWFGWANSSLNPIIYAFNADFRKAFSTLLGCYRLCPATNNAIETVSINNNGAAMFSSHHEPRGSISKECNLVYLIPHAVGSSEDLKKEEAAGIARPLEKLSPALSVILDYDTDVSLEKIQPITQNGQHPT
Protocol: (§1) The final compounds were tested for their affinity at serotonin 5-HT1A, 5-HT2A, and 5-HT7 receptors and at dopamine D1, D2, D3, and D5 receptors. As a first step, competition radioligand binding assays were carried out for all the compounds at the single concentration of 10 µM, on membrane preparations from stable cell lines heterologously expressing the human cloned 5-HT1A, 5-HT2A, or 5-HT7 receptors. […] For the affinity determination at dopamine receptor subtypes, membrane fractions of human dopamine D2s, D3, D1, and D5 receptor-expressing cells were used. They were co-incubated with [^3H]spiperone (for D2s and D3 receptor) or [^3H]SCH23390 (for D1 and D5 receptor) and appropriate concentrations of test compound for 120 min. Bound radioligand was separated from the free ligand using filtration. Radioactivity was measured by liquid scintillation counting.
(§2) The affinity for dopamine D1 and D5 receptors was evaluated in membrane fractions of HEK-293 cells stably expressing the human dopamine D1 or D5 receptor. HEK-293-D1 cells were cultured in DMEM/F12 (15 mM HEPES, 1.2 g/L NaHCO3) with 10% (v/v) FBS and 1% (v/v) L-glutamine. HEK-293-D5 cells were cultured in DMEM/F12 (with L-glutamine, 1.2 g/L NaHCO3) with 20% (v/v) FBS. Preparation of membrane fractions and radioligand competition assays were performed as previously described. Briefly, membrane fractions were co-incubated with [^3H]-SCH23390 (0.3 nM) and different concentrations of test compound for 120 min at room temperature. Fluphenazine (100 µM) was used to determine non-specific binding and as reference compound.
(§3) Data of at least three independent experiments in triplicate were analyzed using GraphPad Prism 8.1 (San Diego, CA, USA). Binding curves were fitted to a non-linear regression model (one-site competition). Ki values were calculated from IC50 values using the Cheng–Prusoff equation. The statistical calculations were performed on –log(Ki).

[3] = molecular target: T2, serotonin 5-HT7 receptor (5-HT7A) (Homo sapiens, UniProt P34969); assay: 5-HT7 receptor radioligand competition binding ([3H]-SB269970); conditions: human cloned 5-HT7A receptor, HEK293 membranes, 2 nM [3H]-SB269970; ± S.E.M., n = 3 in duplicate; read-out: Affinity Ki 5-HT7
T2 construct: expressed in transfected cells
T2 sequence (P34969 1-445 isoform P34969-2): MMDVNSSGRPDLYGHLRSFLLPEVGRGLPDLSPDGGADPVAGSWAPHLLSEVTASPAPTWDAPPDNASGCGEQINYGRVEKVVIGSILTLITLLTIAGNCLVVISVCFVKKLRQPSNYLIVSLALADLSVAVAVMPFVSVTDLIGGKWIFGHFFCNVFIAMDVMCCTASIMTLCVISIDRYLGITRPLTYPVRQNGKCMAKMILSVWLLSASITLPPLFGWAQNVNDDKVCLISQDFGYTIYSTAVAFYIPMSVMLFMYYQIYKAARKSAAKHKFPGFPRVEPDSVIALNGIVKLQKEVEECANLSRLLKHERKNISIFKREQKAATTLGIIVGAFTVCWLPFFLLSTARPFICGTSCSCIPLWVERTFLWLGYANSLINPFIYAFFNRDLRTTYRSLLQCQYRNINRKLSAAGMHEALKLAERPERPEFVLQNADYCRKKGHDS
Protocol: as §1, with “As” for “The final compounds were tested for their affinity at serotonin 5-HT1A, 5-HT2A, and 5-HT7 receptors and at dopamine D1, D2, D3, and D5 receptors. As”
The affinity of the compounds for serotonin 5-HT7 receptor was evaluated in membrane preparations from HEK293 cells stably expressing the human cloned 5-HT7A receptor, following previously described procedures with minor modifications. Competition binding experiments were performed using 2 nM [^3H]-SB269970 (34.5 Ci/mmol, 0.25 mCi/mL, Perkin Elmer NET1198U250UC) as radioligand. […] Methiothepine was included in the assays as reference compound. Assays were carried out in duplicate in 96-well assay plates, in assay buffer (50 mM Tris-HCl, 4 mM MgCl2, 1 mM ascorbic acid, 0.1 mM pargyline, pH = 7.4). Assay mixtures were incubated at 37 °C for 60 min, followed by filtration through GF/C glass filter plates, and washing with ice-cold assay buffer. Affinity (equilibrium dissociation constant, Ki) of the compounds was calculated from competition binding curves as indicated above.

[4] = tested on: SH-SY5Y neuroblastoma cells; assay: Neuroprotection against H2O2 in SH-SY5Y cells (MTT assay); assay type: cell-based, human; conditions: 3 h pretreatment, both concentrations (1 μM and 5 μM), then 400 μM H2O2 24 h
Protocol: Treatment of SH-SY5Y cells with 400 μM H2O2 for 24 h led to a reduction of cell viability of 72–76% (Figure 3). The protective effect of each compound was determined by pretreating the cells with the test compound for 3 h at the non-toxic doses of 1 μM and 5 μM, and subsequent treatment with 400 μM H2O2 for an additional 24 h.
SH-SY5Y neuroblastoma cells (cat. CRL-2266, ATCC) were cultured in a 1:1 mixture of Eagle’s Minimum Essential Medium (cat. 15-010-CVR, Corning) and Ham’s F12 medium (cat. 10-080-CVR, Corning). This medium was supplemented with 10% (v/v) Fetal Bovine Serum (cat. 35-079-CV, Corning), 1% (v/v) Glutamine (cat. ECB3000D, Euro Clone) and 1% (v/v) Penicillin—Streptomycin (cat.30-002-CI, Corning). Cells were cultivated at 37 °C with 5% CO2 at saturated humidity.
Determination of neuroprotection against H2O2 was performed using the MTT assay at 24 h. On day 1, 25,000 cells/well were seeded into 96-well plates in a volume of 100 μL. On day 2, the cells were pretreated (3 h) with two drug concentrations (1 μM and 5 μM) before being incubated with 400 μM H2O2 for 24 h. In all the experiments, the various drug-solvents (EtOH, DMSO) were added in each control to evaluate a possible solvent cytotoxicity. After 24 h incubation, MTT (0.5 mg/mL) was added to each well, and after 3–4 h incubation at 37 °C, the supernatant was removed. The formazan crystals were solubilized using 100 μL of DMSO/EtOH (1:1, v/v) and the absorbance values at 570 and 630 nm were determined on the microplate reader Victor 3 from PerkinElmer Life Sciences (Waltham, MA, USA).
Data were analyzed by applying the one-way repeated measures analysis of variance, and Bonferroni’s multiple comparison test followed as a post hoc test. Results are reported as mean SD of at least two to three independent experiments, performed in triplicate. Statistical significance was accepted at p < 0.05.

[5] = molecular target: T3, dopamine D5 receptor (Homo sapiens, UniProt P21918); assay: Dopamine D5 receptor competition binding ([3H]-SCH23390); conditions: HEK-293 membranes, [3H]-SCH23390 0.3 nM, mean (CI 95%), read-out: Affinity Ki D5
T3 construct: expressed in transfected cells
T3 sequence (P21918 whole entry): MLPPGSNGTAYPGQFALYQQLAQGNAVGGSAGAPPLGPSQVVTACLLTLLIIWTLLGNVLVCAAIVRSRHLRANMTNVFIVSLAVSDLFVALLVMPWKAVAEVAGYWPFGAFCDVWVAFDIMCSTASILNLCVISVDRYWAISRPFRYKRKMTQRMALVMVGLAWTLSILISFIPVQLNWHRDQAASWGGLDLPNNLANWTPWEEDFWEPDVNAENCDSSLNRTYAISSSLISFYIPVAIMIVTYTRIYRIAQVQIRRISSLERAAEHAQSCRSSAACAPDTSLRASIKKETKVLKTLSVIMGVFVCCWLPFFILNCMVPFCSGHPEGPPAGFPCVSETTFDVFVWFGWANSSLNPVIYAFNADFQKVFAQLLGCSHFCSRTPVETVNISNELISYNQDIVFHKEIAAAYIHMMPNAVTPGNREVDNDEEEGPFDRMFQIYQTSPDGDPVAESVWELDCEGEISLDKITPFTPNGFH
Protocol: as §1, §2, §3

dopamine D2s receptor, sequence (P14416 1-414 isoform P14416-2): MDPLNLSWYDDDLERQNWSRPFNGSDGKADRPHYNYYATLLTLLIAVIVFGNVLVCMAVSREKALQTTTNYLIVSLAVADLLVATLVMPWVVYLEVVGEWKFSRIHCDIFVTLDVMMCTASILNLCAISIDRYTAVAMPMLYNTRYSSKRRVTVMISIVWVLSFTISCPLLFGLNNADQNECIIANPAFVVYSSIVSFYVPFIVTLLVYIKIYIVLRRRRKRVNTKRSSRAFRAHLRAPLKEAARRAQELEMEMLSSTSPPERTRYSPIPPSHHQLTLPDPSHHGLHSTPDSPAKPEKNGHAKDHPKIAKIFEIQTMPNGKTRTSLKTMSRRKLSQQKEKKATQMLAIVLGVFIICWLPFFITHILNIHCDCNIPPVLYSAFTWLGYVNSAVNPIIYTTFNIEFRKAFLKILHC

Compound	Ki [1]	Ki [2]	Ki [3]	recovery of cell viability vs 400 μM H2O2 alone (in words) [4]	Ki [5]
CC1Oc2ccc(OCCCN3CCN(c4ncccc4-c4ccncc4)CC3)cc2NC1=O (stereo not drawn) [Compound 8a, 6-(3-(4-([3,4’-Bipyridin]-2-yl)piperazin-1-yl)propoxy)-2-methyl-2H-benzo[b][1,4]oxazin-3(4H)-one]	388 nM	6290 nM	10.7 ± 0.7 nM	statistically significant recovery of cell viability	7410 nM
CC1Oc2ccc(OCCCCN3CCN(c4ncccc4-c4ccncc4)CC3)cc2NC1=O (stereo not drawn) [Compound 8b, 6-(4-(4-([3,4’-Bipyridin]-2-yl)piperazin-1-yl)butoxy)-2-methyl-2H-benzo[b][1,4]oxazin-3(4H)-one]	9.08 nM	1710 nM	9.38 ± 0.42 nM	statistically significant recovery of cell viability	8200 nM
COc1ccc(-c2cc(F)ccc2N2CCN(CCCCn3ncc(=O)n(C)c3=O)CC2)cc1 [Compound 9b, 2-(4-(4-(5-Fluoro-4’-methoxy-[1,1’-biphenyl]-2-yl)piperazin-1-yl)butyl)-4-methyl-1,2,4-triazine-3,5(2H,4H)-dione]	> 10000 nM	88.3 nM	45 ± 3.4 nM	statistically significant recovery of cell viability	222 nM
Cn1c(=O)cnn(CCCN2CCN(c3ccc(F)cc3-c3ccc(C#N)cc3)CC2)c1=O [Compound 10a, 5’-Fluoro-2’-(4-(3-(4-methyl-3,5-dioxo-4,5-dihydro-1,2,4-triazin-2(3H)-yl)propyl)piperazin-1-yl)-[1,1’-biphenyl]-4-carbonitrile]	> 10000 nM	104 nM	45.7 ± 1.3 nM	–	180 nM
Cn1c(=O)cnn(CCCCN2CCN(c3ccc(F)cc3-c3ccc(C#N)cc3)CC2)c1=O [Compound 10b, 5’-Fluoro-2’-(4-(4-(4-methyl-3,5-dioxo-4,5-dihydro-1,2,4-triazin-2(3H)-yl)butyl)piperazin-1-yl)-[1,1’-biphenyl]-4-carbonitrile]	> 10000 nM	140 nM	36.5 ± 5.2 nM	–	101 nM
Cn1c(=O)cnn(CCCN2CCN(c3ncccc3-c3ccncc3)CC2)c1=O [Compound 11a, 2-(3-(4-([3,4’-Bipyridin]-2-yl)piperazin-1-yl)propyl)-4-methyl-1,2,4-triazine-3,5(2H,4H)-dione]	> 10000 nM	> 10000 nM	44.5 ± 2.2 nM	–	> 10000 nM
Cn1c(=O)cnn(CCCCN2CCN(c3ncccc3-c3ccncc3)CC2)c1=O [Compound 11b, 2-(4-(4-([3,4’-Bipyridin]-2-yl)piperazin-1-yl)butyl)-4-methyl-1,2,4-triazine-3,5(2H,4H)-dione]	> 10000 nM	> 10000 nM	79.4 ± 9 nM	–	> 10000 nM
Cc1cc(=O)oc2cc(OCCCN3CCN(c4ncccc4-c4ccncc4)CC3)ccc12 [Compound 12a, 7-(3-(4-([3,4’-Bipyridin]-2-yl)piperazin-1-yl)propoxy)-4-methyl-2H-chromen-2-one]	300 nM	2200 nM	42.5 ± 6.2 nM	–	> 10000 nM
Cc1cc(=O)oc2cc(OCCCCN3CCN(c4ncccc4-c4ccncc4)CC3)ccc12 [Compound 12b, 7-(4-(4-([3,4’-Bipyridin]-2-yl)piperazin-1-yl)butoxy)-4-methyl-2H-chromen-2-one]	17 nM	1530 nM	52.2 ± 10.6 nM	–	2730 nM
